Converted amounts (≈) assume the structure as drawn. Each block holds one compound with its values, some of them ahead of it.
Legend:
Experiment in all cases: ≥ marks a high value that may be exact or a test limit, other limits are often not marked, values filed in µg/mL are converted to µM
[1] = system: Candida albicans NCTC 3179
[2] = system: Escherichia coli ATCC 25922
[3] = system: Staphylococcus aureus NCTC 6571
[4] = system: Bacillus subtilis ATCC 11774
[5] = system: Enterococcus faecalis FA1
[6] = system: Escherichia coli ATCC 12014
[7] = system: Escherichia coli C25
[8] = system: Listeria monocytogenes ATCC 15313
[9] = system: Porphyromonas gingivalis ATCC 33277
[10] = system: Pseudomonas aeruginosa ATCC 10145
[11] = system: Salmonella enterica subsp. enterica serovar Typhimurium ATCC BAA-215
[12] = system: Staphylococcus aureus ATCC 25923
[13] = system: Acinetobacter baumannii CCARM 12035
[14] = system: Acinetobacter baumannii CCARM 12036
[15] = system: Acinetobacter baumannii KCTC 2508
[16] = system: Bacillus subtilis KCTC 3028
[17] = system: Escherichia coli CCARM 1229
[18] = system: Escherichia coli CCARM 1238
[19] = system: Escherichia coli KCTC 1682
[20] = system: Pseudomonas aeruginosa CCARM 2002
[21] = system: Pseudomonas aeruginosa CCARM 2095
[22] = system: Pseudomonas aeruginosa KCTC 1637
[23] = system: Salmonella typhimurium CCARM 8003
[24] = system: Salmonella typhimurium CCARM 8007
[25] = system: Salmonella typhimurium KCTC 1926
[26] = system: Staphylococcus aureus CCARM 3089
[27] = system: Staphylococcus aureus CCARM 3108
[28] = system: Staphylococcus aureus CCARM 3126
[29] = system: Staphylococcus aureus KCTC 1621
[30] = system: Staphylococcus epidermidis KCTC 1917

MIC [1]: ≥ 36.5 µM
MIC [2]: 0.912 µM (≈ 2.1 µg/mL)
MIC [3]: 3.13 µM (≈ 7.2 µg/mL)
SMILES: CC[C@H](C)[C@H](NC(=O)[C@H](CCCN=C(N)N)NC(=O)[C@H](CCC(N)=O)NC(=O)[C@@H](NC(=O)[C@@H](NC(=O)[C@H](CCCN=C(N)N)NC(=O)[C@H](CCCCN)NC(=O)[C@H](Cc1ccccc1)NC(=O)[C@H](CCC(=O)O)NC(=O)[C@@H](N)CCCCN)[C@@H](C)CC)C(C)C)C(=O)N[C@@H](CCCCN)C(=O)N[C@@H](CC(=O)O)C(=O)N[C@@H](Cc1ccccc1)C(=O)N[C@@H](CC(C)C)C(=O)N[C@@H](CCCN=C(N)N)C(=O)N[C@@H](CC(N)=O)C(=O)N[C@@H](CC(C)C)C(=O)N[C@H](C(=O)O)C(C)C [KEFKRIVQRIKDFLRNLV]

MIC [4]: ≥ 108 µM
MIC [5]: ≥ 53.9 µM
MIC [6]: 3.37 µM (≈ 6.25 µg/mL)
MIC [7]: 7.1 µM (≈ 13.2 µg/mL)
MIC [8]: 6.73 µM (≈ 12.5 µg/mL)
MIC [9]: 1.68 µM (≈ 3.12 µg/mL)
MIC [10]: 6.73 µM (≈ 12.5 µg/mL)
MIC [11]: 6.73 µM (≈ 12.5 µg/mL)
MIC [12]: 14 µM (≈ 26 µg/mL)
SMILES: CC[C@H](C)[C@H](NC(=O)CNC(=O)[C@H](CCCN=C(N)N)NC(=O)[C@H](Cc1ccc(O)cc1)NC(=O)[C@@H](NC(=O)[C@H](CCCN=C(N)N)NC(=O)[C@H](Cc1ccccc1)NC(=O)[C@H](Cc1c[nH]c2ccccc12)NC(=O)[C@@H](N)CCCCN)C(C)C)C(=O)N[C@@H](Cc1ccc(O)cc1)C(=O)N[C@@H](CCCN=C(N)N)C(=O)N[C@@H](CCCN=C(N)N)C(=O)N[C@@H](CCCN=C(N)N)C(N)=O [KWFRVYRGIYRRR]

MIC [13]: 8 µM (≈ 21.8 µg/mL)
MIC [14]: 8 µM (≈ 21.8 µg/mL)
MIC [15]: 8 µM (≈ 21.8 µg/mL)
MIC [16]: ≥ 32 µM
MIC [17]: 8 µM (≈ 21.8 µg/mL)
MIC [18]: 8 µM (≈ 21.8 µg/mL)
MIC [19]: 8 µM (≈ 21.8 µg/mL)
MIC [20]: 16 µM (≈ 43.6 µg/mL)
MIC [21]: 16 µM (≈ 43.6 µg/mL)
MIC [22]: 16 µM (≈ 43.6 µg/mL)
MIC [23]: 16 µM (≈ 43.6 µg/mL)
MIC [24]: 8 µM (≈ 21.8 µg/mL)
MIC [25]: 8 µM (≈ 21.8 µg/mL)
MIC [26]: ≥ 32 µM
MIC [27]: ≥ 32 µM
MIC [28]: ≥ 32 µM
MIC [29]: ≥ 32 µM
MIC [30]: ≥ 32 µM
SMILES: CC[C@H](C)[C@H](NC(=O)[C@H](C)NC(=O)[C@H](CCC(=O)O)NC(=O)[C@H](Cc1cnc[nH]1)NC(=O)[C@@H](NC(=O)[C@@H]1CCCN1C(=O)[C@H](CCC(N)=O)NC(=O)[C@H](Cc1ccccc1)NC(=O)[C@@H](NC(=O)[C@H](CCCCN)NC(=O)[C@H](CCCCN)NC(=O)[C@H](CC(C)C)NC(=O)[C@H](C)NC(=O)[C@H](CC(N)=O)NC(=O)[C@H](CC(C)C)NC(=O)CN)C(C)C)[C@@H](C)CC)C(=O)N[C@@H](CCCCN)C(=O)N[C@@H](CC(C)C)C(=O)N[C@H](C(=O)N[C@@H](CC(N)=O)C(=O)N[C@@H](CC(N)=O)C(=O)N[C@@H](Cc1cnc[nH]1)C(=O)N[C@H](C(=O)N[C@@H](CCC(N)=O)C(=O)O)C(C)C)[C@@H](C)CC [GLNALKKVFQPIHEAIKLINNHVQ]

Source: DBAASP
